The values below come from ChEMBL document CHEMBL1128761, “Benzothiazolylthio carbapenems: potent anti-MRSA agents” (Bioorg Med Chem Lett, 1995).

Assay [1] addresses T1, Dipeptidase 1 (Sus scrofa) (UniProt P22412).
T1 sequence (whole entry): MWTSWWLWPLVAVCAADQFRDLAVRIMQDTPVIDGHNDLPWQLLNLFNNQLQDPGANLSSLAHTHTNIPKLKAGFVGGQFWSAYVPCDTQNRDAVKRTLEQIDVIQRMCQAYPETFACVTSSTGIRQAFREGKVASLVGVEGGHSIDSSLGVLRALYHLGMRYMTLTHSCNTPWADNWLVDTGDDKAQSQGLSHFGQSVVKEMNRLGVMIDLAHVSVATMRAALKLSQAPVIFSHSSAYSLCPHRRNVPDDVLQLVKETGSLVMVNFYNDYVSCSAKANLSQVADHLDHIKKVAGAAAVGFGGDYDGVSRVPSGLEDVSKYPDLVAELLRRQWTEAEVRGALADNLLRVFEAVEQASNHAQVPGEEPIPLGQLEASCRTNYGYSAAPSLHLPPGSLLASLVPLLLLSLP
Description: (§1) Susceptibility to DHP-I (swine kidney enzyme). In kind it is tissue-based.

For the next assay, the target named is T2, MecA (Staphylococcus aureus, UniProt Q7DHH4).
T2 sequence (Q7DHH4 whole entry): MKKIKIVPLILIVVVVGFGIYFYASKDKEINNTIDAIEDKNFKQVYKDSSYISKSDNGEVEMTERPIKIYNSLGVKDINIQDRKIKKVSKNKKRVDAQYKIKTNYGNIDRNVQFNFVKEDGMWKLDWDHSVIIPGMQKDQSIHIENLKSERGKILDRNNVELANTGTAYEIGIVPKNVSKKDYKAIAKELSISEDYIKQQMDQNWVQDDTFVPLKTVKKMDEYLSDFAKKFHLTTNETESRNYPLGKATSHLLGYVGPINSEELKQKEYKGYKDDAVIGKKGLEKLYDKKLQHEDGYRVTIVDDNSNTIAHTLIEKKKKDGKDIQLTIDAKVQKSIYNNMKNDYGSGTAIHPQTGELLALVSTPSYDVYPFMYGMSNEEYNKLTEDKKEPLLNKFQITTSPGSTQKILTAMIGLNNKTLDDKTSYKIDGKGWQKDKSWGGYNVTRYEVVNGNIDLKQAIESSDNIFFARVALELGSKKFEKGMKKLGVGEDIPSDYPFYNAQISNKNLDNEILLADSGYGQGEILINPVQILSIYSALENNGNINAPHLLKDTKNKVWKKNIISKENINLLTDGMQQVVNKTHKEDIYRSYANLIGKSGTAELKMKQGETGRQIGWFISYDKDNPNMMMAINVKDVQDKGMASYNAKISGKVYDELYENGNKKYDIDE
In words: Binding affinity towards Penicillin-binding protein 2a from homogeneous MRSA COL strain using [3H]-radioligand.

Assay [2] concerns Staphylococcus aureus. Description: Inhibitory activity against methicillin-resistant staphylococcus aureus(MRSA)evaluated by computational method. In kind it is functional.
Assay [3] relates to Staphylococcus. In words: Inhibitory activity against methicillin-resistant coagulase negative staphylococci (MRCNS)evaluated by computational method. It counts as functional.
The test system of assay [4] is Bacteria. In words: The gram-negative activity is derived from eleven strains selected from seven enteric genera. In kind it is functional.
The test system of assay [5] is Staphylococcus. In words: Inhibitory activity against methicillin-resistant coagulase negative staphylococci (MRCNS)evaluated manually. It counts as functional.
Assay [6] has as its system Enterococcus. In words: Inhibitory activity against enterococcus evaluated by computational method. In kind it is functional.
In assay [7] the test system is Staphylococcus aureus. In words: Inhibitory activity against methicillin-resistant staphylococcus aureus(MRSA)evaluated manually. In kind it is functional.
For assay [8], the system named is Staphylococcus aureus. In words: Inhibitory activity against methicillin-sensitive staphylococcus aureus(MSSA) evaluated manually. In kind it is functional.
The subject of assay [9] is Enterococcus. In words: Inhibitory activity against enterococcus evaluated manually. It counts as functional.
For assay [10], the system named is Staphylococcus aureus. In words: Inhibitory activity against methicillin-sensitive staphylococcus aureus(MSSA) evaluated by computational method. In kind it is functional.
The species entered for the next assay is Sus scrofa. The assay is described as §1. In kind it is tissue-based.
The subject of assay [11] is Staphylococcus. Description: Inhibitory activity against methicillin-resistant coagulase negative staphylococci (MRCNS) evaluated by computational method. In kind it is functional.
The test system of the next assay is Staphylococcus sp. In words: (§2) Inhibitory activity against methicillin-resistant coagulase negative staphylococci (MRCNS) evaluated manually. It counts as functional.
The subject of assay [12] is Staphylococcus aureus. In words: Inhibitory activity against methicillin-resistant staphylococcus aureus(MRSA) evaluated manually. It counts as functional.
Assay [13] relates to Bacteria. Description: Inhibitory activity against gram negative bacteria evaluated manually. In kind it is functional.
The test system of assay [14] is Staphylococcus aureus. Description: Inhibitory activity against methicillin-resistant staphylococcus aureus(MRSA) evaluated by computational method. In kind it is functional.
Assay [15] deals with Staphylococcus. The assay is described as §2. It counts as functional.

The term IC50 denotes the point on the concentration scale where inhibition reaches its midpoint. A higher IC50 goes with a need for much substance. As usually defined, the MIC is the least concentration at which growth counts as inhibited.

Values after ≈ are worked out from the molar mass of the structure shown.

For `C[C@@H](O)[C@H]1C(=O)N2C(C(=O)[O-])=C(Sc3nc4ccccc4s3)[C@H](C)[C@H]12.[Na+]`, the Susceptibility in assay [1] was 0.2. The IC50 at MecA was 5020 nM. Besides, the MIC is 1.7 µg/mL against Staphylococcus aureus [2]; 1.6 µg/mL in the assay on Staphylococcus [3]; 9.7 µg/mL against Bacteria [4]; 5.6 µg/mL in the assay on Bacteria [4] (Bacteria, read-out: MIC); 4 µg/mL with Staphylococcus [5]; 2.1 µg/mL in the assay with Enterococcus [6]. In addition, the MIC in the assay on Staphylococcus aureus [7] amounted to 1 µg/mL; in the assay with Staphylococcus aureus [8] it was 0.02 µg/mL; in the assay on Enterococcus [9] it was 4 µg/mL; against Staphylococcus aureus [10], 0.06 µg/mL.
In the assay filed under Sus scrofa, `C[C@@H](O)[C@H]1C(=O)N2C(C(=O)[O-])=C(Sc3nc4cc(C[n+]5ccn(C)c5)ccc4s3)C[C@H]12` returned a Susceptibility of 0.2. For the same molecule, the MIC in the assay with Staphylococcus [11] came out at 0.8 µg/mL (≈ 1.75 µM); in the assay on Bacteria [4] (Bacteria, read-out: MIC), 3.4 µg/mL (≈ 7.45 µM); with Enterococcus [6], 1.2 µg/mL (≈ 2.63 µM); against Staphylococcus sp. it was 4 µg/mL (≈ 8.76 µM); with Staphylococcus aureus [8] it was 0.02 µg/mL (≈ 0.0438 µM); against Enterococcus [9], 1 µg/mL (≈ 2.19 µM). Further, the MIC in the assay with Staphylococcus aureus [12] came out at 2 µg/mL (≈ 4.38 µM); in the assay with Bacteria [13], 5.2 µg/mL (≈ 11.4 µM); in the assay on Staphylococcus aureus [14], 1 µg/mL (≈ 2.19 µM); with Staphylococcus aureus [10] it was 0.03 µg/mL (≈ 0.0657 µM). For the same molecule, the IC50 on MecA is 876 nM.
`C[C@@H](O)[C@H]1C(=O)N2C(C(=O)O)=C(SCCNC=N)C[C@H]12` [IMIPENEM ANHYDROUS] came in with a Susceptibility in the assay filed under Sus scrofa of 1. Further, the minimum inhibitory concentration (MIC) in the assay with Staphylococcus [11] is 63.7 µg/mL (≈ 213 µM); with Bacteria [4] (Bacteria, read-out: MIC) it was 0.6 µg/mL (≈ 2 µM); in the assay with Enterococcus [6] it was 1.1 µg/mL (≈ 3.67 µM); against Staphylococcus [15], greater than 64 µg/mL; with Staphylococcus aureus [8], 0.02 µg/mL (≈ 0.0668 µM); with Enterococcus [9] it was 1.3 µg/mL (≈ 4.34 µM). For the same molecule, the MIC amounted to 64 µg/mL (≈ 214 µM) against Staphylococcus aureus [12], 0.4 µg/mL (≈ 1.34 µM) against Bacteria [13], 35.9 µg/mL (≈ 120 µM) in the assay on Staphylococcus aureus [14] and 0.02 µg/mL (≈ 0.0668 µM) in the assay with Staphylococcus aureus [10].
